Laboratory results taken from patent publication US9718804B2, “GSK-3 inhibitors” (BRISTOL-MYERS SQUIBB COMPANY, priority 2013, dated 2017).
Read-outs that look alike come from different tables or passages of the source.

Experiments:
[1] = molecular target: GSK3α (Homo sapiens, UniProt P49840); test: GSK3α kinase assay (Caliper LabChip, fluoresceinated peptide substrate); assay type: biochemical
Method: (§1) The kinase assay was performed in V-bottom 384-well plates. […] The reaction was incubated at room temperature for 20 hours and terminated by adding 45 μl of 35 mM EDTA to each sample. The reaction mixture was analyzed on the Caliper LabChip3000 (Caliper, Hopkinton, Mass.) by electrophoretic separation of the unphosphorylated substrate and phosphorylated product. […] Compounds were dissolved at 10 mM in dimethylsulfoxide (DMSO) and evaluated at eleven concentrations. IC50 values were derived by non-linear regression analysis.

[2] = molecular target: GSK3β (Homo sapiens, UniProt P49841); test: GSK3β kinase assay (Caliper LabChip, fluoresceinated peptide substrate); assay type: biochemical
Chain of GSK3β (P49841 whole entry, species assumed): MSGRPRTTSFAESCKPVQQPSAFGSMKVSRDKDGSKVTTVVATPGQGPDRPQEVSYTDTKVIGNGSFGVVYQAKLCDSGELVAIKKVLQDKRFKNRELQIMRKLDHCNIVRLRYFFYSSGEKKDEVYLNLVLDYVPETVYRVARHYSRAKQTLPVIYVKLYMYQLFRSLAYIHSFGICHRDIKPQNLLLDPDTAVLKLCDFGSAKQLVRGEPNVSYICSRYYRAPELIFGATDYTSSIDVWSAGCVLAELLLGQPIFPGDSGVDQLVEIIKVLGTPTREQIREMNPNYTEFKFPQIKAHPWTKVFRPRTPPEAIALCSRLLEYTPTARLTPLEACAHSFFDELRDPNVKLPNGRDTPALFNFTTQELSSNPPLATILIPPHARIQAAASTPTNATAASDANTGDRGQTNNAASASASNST
Method: as §1

[3] = test system: pTau; test: pTau assay (no method described); assay type: cell-based
[4] = first value of the cell, 250 pM enzyme, 20 uM ATP, 20 hours at room temperature, read-out: GSK3β/α (nM): GSK3β IC50

Chain of GSK3α (P49840 whole entry, species assumed): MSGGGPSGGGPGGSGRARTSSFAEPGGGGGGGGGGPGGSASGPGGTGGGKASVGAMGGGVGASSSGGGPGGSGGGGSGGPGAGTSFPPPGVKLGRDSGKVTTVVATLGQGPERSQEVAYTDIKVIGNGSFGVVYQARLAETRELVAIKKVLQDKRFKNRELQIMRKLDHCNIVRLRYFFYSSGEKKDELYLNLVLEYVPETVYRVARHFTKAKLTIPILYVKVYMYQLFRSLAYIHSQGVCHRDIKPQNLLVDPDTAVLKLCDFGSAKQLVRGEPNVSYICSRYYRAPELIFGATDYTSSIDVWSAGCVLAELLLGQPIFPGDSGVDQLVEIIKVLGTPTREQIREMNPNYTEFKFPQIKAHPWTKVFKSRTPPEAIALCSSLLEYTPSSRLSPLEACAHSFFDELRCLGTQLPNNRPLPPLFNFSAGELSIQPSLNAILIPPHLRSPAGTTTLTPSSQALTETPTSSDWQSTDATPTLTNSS

For `O=C(Nc1cnccc1OCC(F)(F)F)c1cc(Nc2ccc(C(F)(F)F)cn2)ncc1F` [Example 168, 5-Fluoro-N-(4-(2,2,2-trifluoroethoxy)pyridin-3-yl)-2-((5-(trifluoromethyl)pyridin-2-yl)amino)isonicotinamide], the IC50 [1] was 0.73 nM and the IC50 [2, 4] was 1.5 nM.

`NC(=O)c1ccc(Nc2cc(C(=O)Nc3cncc(-c4ccccc4F)c3)ccn2)nc1` [Example 160, 6-((4-((5-(2-Fluorophenyl)pyridin-3-yl)carbamoyl)pyridin-2-yl)amino)nicotinamide] gave an IC50 [1] of 7.6 nM and an IC50 [2, 4] of 16 nM.

Compound `N#Cc1cnn(-c2cncc(NC(=O)c3ccnc(Nc4ccc(C(F)(F)F)cn4)c3)c2)c1` [Example 118, N-(5-(4-Cyano-1H-pyrazol-1-yl)pyridin-3-yl)-2-((5-(trifluoromethyl)pyridin-2-yl)amino)isonicotinamide] has an IC50 [2, 4] of 7.3 nM and an IC50 [3] of 360 nM.

In the case of `COC(=O)/C=C/c1ccc(Nc2cc(C(=O)Nc3cncc(-c4ccccc4F)c3)ccn2)nc1` [Example 161], the IC50 [1] is reported as 8 nM and the IC50 [2, 4] is reported as 23 nM.

Compound `N#Cc1ccc(-c2cncc(NC(=O)c3ccnc(Nc4cccc(C#N)n4)c3)c2)cc1` [Example 162, N-(5-(4-Cyanophenyl)pyridin-3-yl)-2-((6-cyanopyridin-2-yl)amino)isonicotinamide] has an IC50 [1] of 2.4 nM and an IC50 [2] of 3.5 nM.

Compound `Cc1cc(C2(C3CC3)OCCO2)c(NC(=O)c2ccnc(Nc3ccc(C(F)(F)F)cn3)c2)cn1` [Example 105, N-(4-(2-Cyclopropyl-1,3-dioxolan-2-yl)-6-methylpyridin-3-yl)-2-((5-(trifluoromethyl)pyridin-2-yl)amino)isonicotinamide] has an IC50 [3] of 2 nM.

Compound `CCc1nc(Nc2cc(C(=O)Nc3cncc(-c4ccccc4F)c3)ccn2)ccc1C#N` [Example 148, 2-((5-Cyano-6-ethylpyridin-2-yl)amino)-N-(5-(2-fluorophenyl)pyridin-3-yl)isonicotinamide] has an IC50 [2, 4] of 4.5 nM and an IC50 [3] of 360 nM.

Work on `CS(=O)(=O)c1ccncc1NC(=O)c1ccnc(Nc2ccc(C(F)(F)F)cn2)c1` [Example 181, N-(4-(Methylsulfonyl)pyridin-3-yl)-2-((5-(trifluoromethyl)pyridin-2-yl)amino)isonicotinamide] yielded an IC50 [1] of 0.77 nM and an IC50 [2, 4] of 1.2 nM.

Compound `O=C(Nc1cnccc1C1CCCCO1)c1ccnc(Nc2ccc(C(F)(F)F)cn2)c1` (stereo not drawn) [Example 41, N-(4-(Tetrahydro-2H-pyran-2-yl)pyridin-3-yl)-2-((5-(trifluoromethyl)pyridin-2-yl)amino)isonicotinamide] has an IC50 [2, 4] of 13 nM and an IC50 [3] of 120 nM.

`C=CCOc1ccc(-c2cnncc2NC(=O)c2ccnc(Nc3ccc(C(F)(F)F)cn3)c2)cc1` [Example 199, N-(5-(4-(Allyloxy)phenyl)pyridazin-4-yl)-2-((5-(trifluoromethyl)pyridin-2-yl)amino)isonicotinamide] was tested, and the IC50 [2, 4] was 8.7 nM and the IC50 [3] was 470 nM.

With `O=C(Nc1cnc(F)cc1OCC(F)(F)F)c1ccnc(Nc2ccc(C(F)(F)F)cn2)c1` [Example 69, N-(6-Fluoro-4-(2,2,2-trifluoroethoxy)pyridin-3-yl)-2-((5-(trifluoromethyl)pyridin-2-yl)amino)isonicotinamide] the IC50 [2, 4] was 2.6 nM and the IC50 [3] was 165 nM.

`O=C(Nc1cnccc1-c1ccccn1)c1ccnc(Nc2ccc(C(F)(F)F)cn2)c1` [Example 43, N-([2,4′-Bipyridin]-3′-yl)-2-((5-(trifluoromethyl)pyridin-2-yl)amino)isonicotinamide] showed an IC50 [1] of 0.59 nM and an IC50 [2, 4] of 0.77 nM.

Work on `CC(C)[S+]([O-])c1ccncc1NC(=O)c1ccnc(Nc2ccc(C(F)(F)F)cn2)c1` (stereo not drawn) [Example 179, N-(4-(isopropylsulfinyl)pyridin-3-yl)-2-((5-(trifluoromethyl)pyridin-2-yl)amino)isonicotinamide] yielded an IC50 [1] of 1.2 nM and an IC50 [2, 4] of 4.3 nM.

For `O=C(Nc1cnncc1C(=O)C1CC1)c1ccnc(Nc2ccc(C(F)(F)F)cn2)c1` [Example 202, N-(5-(Cyclopropanecarbonyl)pyridazin-4-yl)-2-((5-(trifluoromethyl)pyridin-2-yl)amino)isonicotinamide], the IC50 [1] was 1.1 nM and the IC50 [2, 4] was 2.9 nM.
